Experimental data from ChEMBL document CHEMBL1201862, “PubChem BioAssay data set” (2004).
Where “and” joins values, the source holds several entries; their conditions need not be identical. Equal values may be shown once.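 Results reflect a 48-hour exposure of cells in 96-well plates to compound at five concentrations. At the GI50, growth is halved.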 Calls of active or inactive are those of the source. Cut-off read from the data, not from the text of the source: active = GI50 up to about 1.1 µM and inactive = higher.

Assays:
Experiment in all cases: NCI anticancer screen, dose series, 48 h
[1] = system: KM12
[2] = system: HL-60
[3] = system: SF-268
[4] = system: SN12C
[5] = system: HCT-15
[6] = system: NCI/ADR-RES
[7] = system: NCI-H460
[8] = system: K562
[9] = system: HOP-62
[10] = system: UACC-62
[11] = system: LOX IMVI
[12] = system: MOLT-4
[13] = system: RPMI-8226
[14] = system: NCI-H522
[15] = system: TK-10
[16] = system: OVCAR-3
[17] = system: DLD-1
[18] = system: SNB-19
[19] = system: A498
[20] = system: SF-295

Row | SMILES | GI50 [1] | GI50 [2] | GI50 [3] | GI50 [4] | GI50 [5] [µM] | GI50 [6] | GI50 [7] | GI50 [8] | GI50 [9] | GI50 [10] | GI50 [11] | GI50 [12] | GI50 [13] | GI50 [14] | GI50 [15] | GI50 [16] | GI50 [17] | GI50 [18] | GI50 [19] | GI50 [20]
1 | CCCCCCCCOC(=O)c1cc([N+](=O)[O-])c(Sc2[nH]cnc3ncnc2-3)c([N+](=O)[O-])c1 | 3.45 µM (inactive) | 1.52 µM (inactive) | 2.38 µM (inactive) | 2.33 µM (inactive) | 2.23 | 3 µM (inactive) | 3.4 µM (inactive) | 0.366 µM (active) | 3.03 µM (inactive) | 2.9 µM (inactive) | 0.296 µM (active) | 0.857 µM (active) | 0.512 µM (active) | 1.05 µM (active) | 1.85 µM (inactive) | 1.01 µM (active) | 1.11 µM (active) | 18.1 µM (inactive) | 17 µM (inactive) | 3.12 µM (inactive)
2 | COc1cccc2c1C(=O)c1c(O)c3c(c(O)c1C2=O)C[C@@](O)(C(=O)CO)C[C@@H]3OC1CC(N(C)C)C(O)C(C)O1 (stereo partly drawn) | < 0.016 µM (active) | 0.1 µM (active) | < 0.0126 µM (active) | 0.0189 µM (active) | 0.0182 |  | < 0.01 µM (active) | 0.0583 µM (active) | 0.0272 µM (active) | < 0.012 µM (active) | < 0.01 µM (active) | 0.0159 µM (active) | < 0.0175 µM (active) | < 0.011 µM (active) | 0.0303 µM (active) | 0.0644 µM (active) | < 0.0157 µM (active) | 0.0254 µM (active) | < 0.0116 µM (active) | < 0.01 µM (active)
3 | COc1c(-c2ccccc2)nc2ccc(Oc3ccccc3)nn12 | > 54.2 µM (inactive) | 7.33 µM (inactive) | > 56.4 µM (inactive) | > 56.6 µM (inactive) | 17.7 |  | 36.6 µM (inactive) | 14.6 µM (inactive) | > 100 µM (inactive) | > 69.7 µM (inactive) | > 72.9 µM (inactive) | 14.1 µM (inactive) | 7.6 µM (inactive) | > 100 µM (inactive) | > 100 µM (inactive) | > 77.6 µM (inactive) | 48.3 µM (inactive) | > 84.5 µM (inactive) | > 41.4 µM (inactive) | > 62.8 µM (inactive)
4 | O=[N+]([O-])c1ccc2occ3c2c1CCC3 | > 100 µM (inactive) | > 100 µM (inactive) | > 100 µM (inactive) | > 100 µM (inactive) | > 100 |  | > 100 µM (inactive) | > 100 µM (inactive) | > 100 µM (inactive) | > 100 µM (inactive) | > 100 µM (inactive) | > 100 µM (inactive) | > 100 µM (inactive) | > 100 µM (inactive) | > 100 µM (inactive) | > 100 µM (inactive) | > 100 µM (inactive) | > 100 µM (inactive) | > 100 µM (inactive) | > 100 µM (inactive)
5 | O=C1C=Cc2c(-c3ccccc3)oc3cccc1c23 | 28.5 µM (inactive) | 9.12 µM (inactive) | 21.1 µM (inactive) | 9.82 µM (inactive) | 5.97 |  | 5.07 µM (inactive) | 17.2 µM (inactive) | 13.8 µM (inactive) | 11.2 µM (inactive) | 11.2 µM (inactive) | 3.76 µM (inactive) | 3.97 µM (inactive) | 15.3 µM (inactive) | 39.7 µM (inactive) | 20.9 µM (inactive) | 13.2 µM (inactive) | 24 µM (inactive) | 15.4 µM (inactive) | 25.7 µM (inactive)
6 | O=C1CCNC(=O)NC1 | > 100 µM (inactive) | > 100 µM (inactive) | > 100 µM (inactive) | > 100 µM (inactive) | > 100 |  | > 100 µM (inactive) | > 100 µM (inactive) | > 100 µM (inactive) | > 100 µM (inactive) | > 100 µM (inactive) | 23.1 µM (inactive) | > 100 µM (inactive) | > 100 µM (inactive) | > 100 µM (inactive) | > 100 µM (inactive) | > 100 µM (inactive) | > 100 µM (inactive) | > 100 µM (inactive) | > 100 µM (inactive)
7 | COC(=O)[C@@H]1[C@H](O)[C@H](C)[C@H](O)[C@@](C)(O)/C=C\C=C(\C)C(=O)Nc2c(C)c(OC(C)=O)c3c(c2O)C(=O)C(C)=C2OCOC(=C23)/C(C)=C/[C@@](C)(O)[C@H](O)[C@@H](C)[C@H]1OC(C)=O | 47.8 µM (inactive) | 20.5 µM (inactive) | 4.76 µM (inactive) | 43.6 µM (inactive) | 26.9 |  | 49 µM (inactive) | 23.4 µM (inactive) | 40.5 µM (inactive) | 41.3 µM (inactive) | 26.8 µM (inactive) | 27.7 µM (inactive) and 61.7 µM (inactive) | 31.8 µM (inactive) | 47.2 µM (inactive) and 21.5 µM (inactive) | > 66.8 µM (inactive) | 43.1 µM (inactive) and 32 µM (inactive) | 22.4 µM (inactive) | > 100 µM (inactive) and 91.4 µM (inactive) | > 66.8 µM (inactive) | 88.5 µM (inactive)
8 | COc1cc(/C=C/c2cccnc2)cc(OC)c1OC | > 100 µM (inactive) | 98.2 µM (inactive) | > 100 µM (inactive) | > 100 µM (inactive) | > 100 |  | > 100 µM (inactive) | > 100 µM (inactive) | 70.6 µM (inactive) | 81.1 µM (inactive) | > 100 µM (inactive) | > 100 µM (inactive) | > 100 µM (inactive) | 53.5 µM (inactive) | 58.6 µM (inactive) | > 100 µM (inactive) | > 100 µM (inactive) | > 100 µM (inactive) | > 100 µM (inactive) | > 100 µM (inactive)
